Source: the supplement of paper PMC6045584
± gives the standard deviation of the averaged measurements.

Legend:
CAMPTOTHECIN [1] = compound: T1, CC[C@@]1(O)C(=O)OCc2c1cc1n(c2=O)Cc2cc3ccccc3nc2-1 [CAMPTOTHECIN]; test: area under dose-response curve of surviving fraction (unscaled, Aref=0) (surviving fraction x log10(nM)); higher = more resistant; settings: exposure time: 5 days; dose range 0.5-1000 nM
How it was run: (§1)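 Each tumour cell line was screened three times in 384-well plates, receiving eight inhibitor concentrations from 0.5 to 1000 nM for five days. CellTiter-Glo luminescence gave viability, normalised to DMSO-only wells. Using the drc R package, surviving fractions were fitted with 3-parameter logistic dose-response curves, and the unscaled activity area over log10 dose (Aref = 0) was taken as the area under the curve.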

CARBOPLATIN [2] = compound: T2, O=C(O)C1(C(=O)O)CCC1.[NH2-].[NH2-].[Pt+2] [CARBOPLATIN]; test: as above; settings: exposure time: 5 days; dose range 0.5-1000 nM
How it was run: as §1

[3] = compound: CC(=O)c1c(C)c2cnc(Nc3ccc(N4CCNCC4)cn3)nc2n(C2CCCC2)c1=O; test: as above; settings: exposure time: 5 days; dose range 0.5-1000 nM
How it was run: as §1

YM155 [4] = compound: T3, COCC[n+]1c2c(n(Cc3cnccn3)c1C)C(=O)c1ccccc1C2=O [YM155]; test: as above; settings: exposure time: 5 days; dose range 0.5-1000 nM
How it was run: as §1

CELECOXIB [5] = compound: T4, Cc1ccc(-c2cc(C(F)(F)F)nn2-c2ccc(S(N)(=O)=O)cc2)cc1 [CELECOXIB]; test: as above; settings: exposure time: 5 days; dose range 0.5-1000 nM
How it was run: as §1

[6] = compound: CC(=O)NCC(=O)N1[C@@H]2CC[C@H]1c1ccc(Nc3ncc(C(F)(F)F)c(NC4CCC4)n3)cc12; test: as above; settings: exposure time: 5 days; dose range 0.5-1000 nM
How it was run: as §1

PACLITAXEL [7] = compound: T5, CC(=O)O[C@H]1C(=O)[C@@]2(C)[C@H]([C@H](OC(=O)c3ccccc3)[C@]3(O)C[C@H](OC(=O)[C@H](O)[C@@H](NC(=O)c4ccccc4)c4ccccc4)C(C)=C1C3(C)C)[C@]1(OC(C)=O)CO[C@@H]1C[C@@H]2O [PACLITAXEL]; test: as above; settings: exposure time: 5 days; dose range 0.5-1000 nM
How it was run: as §1

OSI-906 [8] = compound: T6, C[C@]1(O)C[C@@H](c2nc(-c3ccc4ccc(-c5ccccc5)nc4c3)c3c(N)nccn32)C1 [OSI-906]; test: as above; settings: exposure time: 5 days; dose range 0.5-1000 nM
How it was run: as §1

CAMPTOTHECIN [9] = compound: T1, CAMPTOTHECIN; test: surviving fraction relative to DMSO-only wells; higher = less growth inhibition; settings: exposure time: 5 days
How it was run: (§2)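 Inhibitors were tested at 0.5, 1, 5, 10, 50, 100, 500 and 1000 nM, applied continuously for five days beginning 24 hours after log-phase tumour cells were seeded at 250–500 per well in 384-well plates. CellTiter-Glo luminescence served as the viability measure, expressed as surviving fraction against the median of DMSO-only wells. Each line, screened three times, was kept only with replicate Pearson r >0.7 and median Z' >0.3.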

CARBOPLATIN [10] = compound: T2, CARBOPLATIN; test: as above; settings: exposure time: 5 days
How it was run: as §2

GEFITINIB = compound: COc1cc2ncnc(Nc3ccc(F)c(Cl)c3)c2cc1OCCCN1CCOCC1 [GEFITINIB]; test: as above; settings: exposure time: 5 days
How it was run: as §2

[11] = compound: CC(=O)c1c(C)c2cnc(Nc3ccc(N4CCNCC4)cn3)nc2n(C2CCCC2)c1=O; test: as above; settings: exposure time: 5 days
How it was run: as §2

YM155 [12] = compound: T3, YM155; test: as above; settings: exposure time: 5 days
How it was run: as §2

CELECOXIB [13] = compound: T4, CELECOXIB; test: as above; settings: exposure time: 5 days
How it was run: as §2

[14] = compound: CC(=O)NCC(=O)N1[C@@H]2CC[C@H]1c1ccc(Nc3ncc(C(F)(F)F)c(NC4CCC4)n3)cc12; test: as above; settings: exposure time: 5 days
How it was run: as §2

PACLITAXEL [15] = compound: T5, PACLITAXEL; test: as above; settings: exposure time: 5 days
How it was run: as §2

OSI-906 [16] = compound: T6, OSI-906; test: as above; settings: exposure time: 5 days
How it was run: as §2

In the case of U2OS BONE, the “area under dose-response curve” value (CAMPTOTHECIN [1]) is reported as 2.05, the “area under dose-response curve” value (CARBOPLATIN [2]) is reported as 3.52 and the “area under dose-response curve” value [3] is reported as 3.41. The “area under dose-response curve” value (YM155 [4]) was 1.16, the “area under dose-response curve” value (CELECOXIB [5]) was 3.42 and the “area under dose-response curve” value [6] was 2.43. For the same test system, the “area under dose-response curve” value (PACLITAXEL [7]) was 1.15, the “area under dose-response curve” value (OSI-906 [8]) was 3.08 and the surviving fraction (CAMPTOTHECIN [9]; 0.5 nM) was 0.924 ± 0.055. It also gave a surviving fraction (CAMPTOTHECIN [9]; 1 nM) of 0.943 ± 0.054, a surviving fraction (CAMPTOTHECIN [9]; 5 nM) of 0.948 ± 0.025 and a surviving fraction (CAMPTOTHECIN [9]; 10 nM) of 0.733 ± 0.03. For the same test system, the surviving fraction (CAMPTOTHECIN [9]; 50 nM) was 0.567 ± 0.011, the surviving fraction (CAMPTOTHECIN [9]; 100 nM) was 0.464 ± 0.0056 and the surviving fraction (CAMPTOTHECIN [9]; 500 nM) was 0.121 ± 0.013. The surviving fraction (CAMPTOTHECIN [9]; 1000 nM) was 0.0677 ± 0.0097, the surviving fraction (CARBOPLATIN [10]; 0.5 nM) was 1.04 ± 0.044 and the surviving fraction (CARBOPLATIN [10]; 1 nM) was 1.05 ± 0.046. The surviving fraction (CARBOPLATIN [10]; 5 nM) was 1.07 ± 0.033, the surviving fraction (CARBOPLATIN [10]; 10 nM) was 1.1 ± 0.028 and the surviving fraction (CARBOPLATIN [10]; 50 nM) was 1.1 ± 0.049. For the same test system, the surviving fraction (CARBOPLATIN [10]; 100 nM) was 1.077 ± 0.0098, the surviving fraction (CARBOPLATIN [10]; 500 nM) was 1.06 ± 0.016 and the surviving fraction (CARBOPLATIN [10]; 1000 nM) was 1.05 ± 0.032. It also gave a surviving fraction (GEFITINIB; 0.5 nM) of 1.03 ± 0.057, a surviving fraction (GEFITINIB; 1 nM) of 0.9987 ± 0.0084 and a surviving fraction (GEFITINIB; 5 nM) of 1.03 ± 0.015. The surviving fraction (GEFITINIB; 10 nM) was 0.989 ± 0.0078, the surviving fraction (GEFITINIB; 50 nM) was 1.04 ± 0.027 and the surviving fraction (GEFITINIB; 100 nM) was 1.04 ± 0.031. The surviving fraction (GEFITINIB; 500 nM) was 0.959 ± 0.0095, the surviving fraction (GEFITINIB; 1000 nM) was 0.98 ± 0.048 and the surviving fraction ([11]; 0.5 nM) was 1.02 ± 0.044. It also gave a surviving fraction ([11]; 1 nM) of 1.01 ± 0.04, a surviving fraction ([11]; 5 nM) of 1.06 ± 0.021 and a surviving fraction ([11]; 10 nM) of 1.06 ± 0.033. For the same test system, the surviving fraction ([11]; 50 nM) was 1.06 ± 0.034, the surviving fraction ([11]; 100 nM) was 1.06 ± 0.033 and the surviving fraction ([11]; 500 nM) was 0.979 ± 0.032. For the same test system, the surviving fraction ([11]; 1000 nM) was 0.981 ± 0.062, the surviving fraction (YM155 [12]; 0.5 nM) was 1.02 ± 0.026 and the surviving fraction (YM155 [12]; 1 nM) was 1.005 ± 0.0056. For the same test system, the surviving fraction (YM155 [12]; 5 nM) was 0.616 ± 0.036, the surviving fraction (YM155 [12]; 10 nM) was 0.304 ± 0.043 and the surviving fraction (YM155 [12]; 50 nM) was 0.033 ± 0.001. It also gave a surviving fraction (YM155 [12]; 100 nM) of 0.023, a surviving fraction (YM155 [12]; 500 nM) of 0.021 and a surviving fraction (YM155 [12]; 1000 nM) of 0.0247 ± 0.00058. The surviving fraction (CELECOXIB [13]; 0.5 nM) was 0.98 ± 0.055, the surviving fraction (CELECOXIB [13]; 1 nM) was 1.03 ± 0.032 and the surviving fraction (CELECOXIB [13]; 10 nM) was 1.03 ± 0.048. For the same test system, the surviving fraction (CELECOXIB [13]; 50 nM) was 1.05 ± 0.032, the surviving fraction (CELECOXIB [13]; 100 nM) was 1.09 ± 0.016 and the surviving fraction (CELECOXIB [13]; 500 nM) was 1.01 ± 0.016. The surviving fraction (CELECOXIB [13]; 1000 nM) was 1 ± 0.043, the surviving fraction ([14]; 0.5 nM) was 1.07 ± 0.016 and the surviving fraction ([14]; 1 nM) was 1.02 ± 0.04. For the same test system, the surviving fraction ([14]; 5 nM) was 1.04 ± 0.061, the surviving fraction ([14]; 10 nM) was 1.01 ± 0.014 and the surviving fraction ([14]; 50 nM) was 0.725 ± 0.015. The surviving fraction ([14]; 100 nM) was 0.483 ± 0.0044, the surviving fraction ([14]; 500 nM) was 0.314 ± 0.016 and the surviving fraction ([14]; 1000 nM) was 0.225 ± 0.011. For the same test system, the surviving fraction (PACLITAXEL [15]; 0.5 nM) was 1 ± 0.037, the surviving fraction (PACLITAXEL [15]; 1 nM) was 0.985 ± 0.016 and the surviving fraction (PACLITAXEL [15]; 5 nM) was 0.488 ± 0.011. For the same test system, the surviving fraction (PACLITAXEL [15]; 10 nM) was 0.271 ± 0.012, the surviving fraction (PACLITAXEL [15]; 50 nM) was 0.106 ± 0.0087 and the surviving fraction (PACLITAXEL [15]; 100 nM) was 0.0817 ± 0.0093. It also gave a surviving fraction (PACLITAXEL [15]; 500 nM) of 0.0593 ± 0.0085, a surviving fraction (PACLITAXEL [15]; 1000 nM) of 0.059 ± 0.001 and a surviving fraction (OSI-906 [16]; 0.5 nM) of 0.979 ± 0.038. The surviving fraction (OSI-906 [16]; 1 nM) was 0.949 ± 0.031, the surviving fraction (OSI-906 [16]; 5 nM) was 0.958 ± 0.013 and the surviving fraction (OSI-906 [16]; 10 nM) was 0.939 ± 0.021. It also gave a surviving fraction (OSI-906 [16]; 50 nM) of 0.967 ± 0.038, a surviving fraction (OSI-906 [16]; 100 nM) of 0.914 ± 0.026 and a surviving fraction (OSI-906 [16]; 500 nM) of 0.872 ± 0.026. It also gave a surviving fraction (OSI-906 [16]; 1000 nM) of 0.863 ± 0.026.
